Assay results: patent publication US20120010075A1 (priority 2009, published 2012)
Where a name gives a salt, the structure may show the parent alone. Read-outs that look alike come from different tables or passages of the source.

What was measured:
[1] = test system: Leptosphaeria nodorum (LEPTNO); assay: In vitro fungitoxicity of hydrazones with and without copper towards Leptosphaeria nodorum (Example 26); type: cell-based; conditions: 72 h at 25° C.; for inhibition of growth at 0.05 µg/mL: Parastagonospora nodorum, 72 h, read-out: LEPTNO % Inhn. Minus Copper Observed
[2] = test system: Phytophthora infestans; type: in vivo, Phytophthora infestans on tomato; conditions: applied 24 h before inoculation, assessed 7 days after inoculation
[3] = copper-minus medium, test compound Concn. 0.05 μg/mL
[4] = copper-plus medium (CuCl2 10 μM), test compound Concn. 0.05 μg/mL
[5] = hydrazone 50 ppm with 50 μM CuCl2.2H2O, tomato late blight
[6] = compound 0.05 μg/mL, copper-minus medium
[7] = compound 0.05 μg/mL, copper-plus medium (CuCl2.2H2O)
[8] = hydrazone 50 ppm + 50 μM CuCl2.2H2O, tomato

SMILES	inhibition of growth at 0.05 µg/mL [1, 3] [%]	LEPTNO % Inhn. Plus Copper Observed [1, 4] [%]	melting point [°C]	TLB % Control [2, 5] [%]	inhibition of growth at 0.05 µg/mL [1, 6] [%]	LEPTNO % Inhn. Plus Copper Observed [1, 7] [%]	TLB % Control [2, 8] [%]	LEPTNO % Inhn. Minus Copper Observed [1, 6] [%]
C/C(=N\NC(=O)c1ccccc1Cl)c1cccc(Cl)c1O [Example 496]	0.7	97.8	189 to 193	94.0				
C/C(=N\NC(=O)c1ccc(Br)cc1)c1cc(F)cc(F)c1O [Example 580]	3.1	98.1	268 to 270	97.0				
COc1ccc(/C(C)=N/NC(=O)c2ccc(C)cc2)c(O)c1OC [Example 554]	0	97.3	245 to 249	100.0				
O=C(N/N=C/c1cc(Cl)ccc1O)c1cccc(F)c1 [Example 420]	11.4	97.5	205 to 224	100.0				
O=C(N/N=C/c1cc(Cl)cc(Cl)c1O)c1cccc(Oc2ccccc2)c1 [Example 46]			170 to 171		20.5	95.9	72.7	
CC/C(=N\NC(=O)c1ccc(C)cc1C)c1ccccc1O [Example 30]			159 to 160		0	97.0	40.7	
Cc1cccc(C(=O)N/N=C/c2cc(C(F)(F)F)cc(Cl)c2O)c1 [Example 321]	11.7	96.6	204 to 206	100.0				
C/C(=N\NC(=O)c1ccccc1Cl)c1cc(F)cc(F)c1O [Example 576]	0.7	97.9	205 to 209	90.0				
O=C(N/N=C/c1cc(C(F)(F)F)ccc1O)c1ccc(F)cc1 [Example 438]	0	94.2	229 to 231	98.0				
CC/C(=N\NC(=O)c1c(Cl)cccc1Cl)c1ccccc1O [Example 48]			181 to 184		0.3	94.6	40.0	
Cc1ccc(C(=O)N/N=C/c2cccc(C(F)(F)F)c2O)cc1 [Example 344]	31.5	91.8	239 to 241	100.0				
CC(C)c1ccc(C(=O)N/N=C/c2cc(Cl)cc(Cl)c2O)cc1 [Example 41]			261 to 263			97.2	87.0	0.0
Cc1cc(C)cc(C(=O)N/N=C/c2cc(Cl)cc(Br)c2O)c1 [Example 168]			223 to 226		13.3	97.7	59.6	
O=C(N/N=C/c1c(Cl)ccc(Cl)c1O)c1cccc([N+](=O)[O-])c1 [Example 371]	12.6	96.1	273 to 277	98.0				
COc1cc(O)c(/C(C)=N/NC(=O)c2ccc(C(F)(F)F)cc2)c(OC)c1 [Example 571]	0	84.7	131 to 133	31.0				
O=C(N/N=C/c1c(O)cccc1Cl)c1cccc(Cl)c1 [Example 402]	0	95.2	250 to 253	100.0				
CC(C)(C)/C(=N\NC(=O)c1ccccc1)c1ccccc1O [Example 592]	0	25.4	241 to 243	1.4				
Cc1cccc(C(=O)N/N=C/c2cc(C(F)(F)F)ccc2O)c1 [Example 435]	4.7	97.2	192 to 194	100.0				
Cc1ccc(C)c(C(=O)N/N=C/c2cc(Cl)cc(Cl)c2O)c1 [Example 23]			169 to 172				53.3	
Cc1ccc(C(=O)N/N=C/c2ccc(Cl)cc2O)c(O)c1 [Example 397]			283 to 287	6.7				
C/C(=N\NC(=O)c1ccccc1O)c1cc(C(F)(F)F)ccc1O (as salt: Na) [Example 538]			277 to 297					
COc1cccc(C(=O)N/N=C(\C)c2ccccc2O)c1 [Example 53]					0	96.8	62.0	
O=C(N/N=C/c1ccccc1O)c1cccc(Cl)c1 [Example 175]					4.9	97.9	80.0	
COc1ccc(/C=N/NC(=O)c2ccccc2)c(O)c1 [Example 147]					0	95.6	13.5	

SMILES	inhibition of growth at 0.05 µg/mL [1, 3] [%]	LEPTNO % Inhn. Plus Copper Observed [1, 4] [%]	melting point [°C]	TLB % Control [2, 5] [%]	inhibition of growth at 0.05 µg/mL [1, 6] [%]	LEPTNO % Inhn. Plus Copper Observed [1, 7] [%]	TLB % Control [2, 8] [%]	LEPTNO % Inhn. Minus Copper Observed [1, 6] [%]
C/C(=N\NC(=O)Cc1ccccc1)c1ccccc1O [Example 128]					10.8	88.6	38.0	
O=C(N/N=C/c1cc(Cl)cc(Cl)c1O)c1ccc(Cl)cc1Cl [Example 78]					7.9	96.3	70.9	
C/C(=N\NC(=O)c1ccc(Br)cc1)c1cc(Cl)cc(Cl)c1O [Example 139]					1.7	97.1	93.0	
COc1cc(Br)cc(/C=N/NC(=O)c2ccc(C)cc2)c1O [Example 206]					16.4	98.4	80.7	
O=C(N/N=C/c1cc([N+](=O)[O-])cc(Br)c1O)c1ccccc1 [Example 153]					0	97.0	34.6	
O=C(N/N=C/c1cc(Br)ccc1O)c1cccc(Cl)c1 [Example 176]					8.8	98.2	61.4	
O=C(N/N=C/c1cc(Cl)cc(Br)c1O)c1cccc(Cl)c1 [Example 192]					7.8	94.7	84.2	
C/C(=N\NC(=O)c1ccccc1[N+](=O)[O-])c1ccccc1O [Example 127]					0	97.1	40.0	
O=C(N/N=C/c1cc(Cl)ccc1O)c1cccc(Cl)c1 [Example 178]					8.5	98.3	59.3	
O=C(N/N=C/c1cc(Cl)cc(Br)c1O)c1ccccc1Br [Example 193]					0	95.1	80.0	
O=C(N/N=C/c1cc(Br)cc(Br)c1O)c1cccc(Br)c1 [Example 113]					17	98.0	94.7	
O=C(N/N=C/c1cccc([N+](=O)[O-])c1O)c1ccccc1 [Example 145]					2.4	97.2	55.9	
C/C(=N\NC(=O)c1cccc([N+](=O)[O-])c1)c1ccccc1O [Example 37]					3.3	97.0	33.0	
C/C(=N\NC(=O)c1ccc(C)cc1C)c1ccccc1O [Example 29]					0	98.0	50.8	
O=C(N/N=C/c1cc(Cl)ccc1O)c1ccccc1Br [Example 190]					5.6	95.7	70.9	
O=C(N/N=C/c1cc(Cl)ccc1O)c1cccc(Br)c1 [Example 181]					16	97.6	90.5	
O=C(N/N=C/c1cc([N+](=O)[O-])ccc1O)c1ccc(Cl)cc1 [Example 197]					0	97.1	43.7	
O=C(N/N=C/c1cc(I)cc(I)c1O)c1ccc(Cl)cc1 [Example 198]					11.8	97.7	75.4	
C/C(=N\NC(=O)c1cccc(C)c1)c1ccccc1O [Example 38]					2.4	98.3	17.0	
COc1cc(Br)cc(/C=N/NC(=O)c2cccc(Cl)c2)c1O [Example 203]					6.9	95.7	56.4	
C/C(=N\NC(=O)c1ccc(Cl)cc1)c1ccccc1O [Example 54]					0	95.7	17.0	
C/C(=N\NC(=O)c1ccc(Cl)cc1Cl)c1ccccc1O [Example 216]					6.3	98.4	57.9	
C/C(=N\NC(=O)c1cccc(Cl)c1)c1ccccc1O [Example 65]					0	98.3	10.0	
